Measured values as given in US8680113B2, “BMI-1 protein expression modulators” (PTC Therapeutics, Inc., priority 2008, dated 2014).
Counter-ions that a name gives are not always drawn.

How the values were obtained:
Bmi-1 = test: Sandwich ELISA Assay (Bmi-1 ELISA in HT-1080 cells); format: cell-based, human
Method in brief: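 HT-1080 cells (8000/well) were treated with compounds in 0.5% final DMSO for 40-48 h at 37°C and then lysed. Bmi-1 in lysates was measured by sandwich ELISA: overnight capture at 4°C on mouse monoclonal, rabbit anti-Bmi-1 detection, HRP anti-rabbit, TMB. OD450 was read with an OD570 reference against a recombinant GST-Bmi-1 standard curve (0-8000 pg/mL).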

MCL-Jeko = test: Mantle Cell Lymphoma Assay: cytotoxicity, Jeko; format: cell-based; details: 72 hrs in culture
Excerpt: (§1) MCL cell lines Jeko, Mino, and Rec-1 were provided by American Type Culture Collection: The Bioresource Center (Manassas, Va.). […] Carlsbad, Calif.) in T-75 culture flasks. Cell concentration was maintained between 2 to 3×10^5 cells/mL. Early passage cells (passages 2-4) were used for all experiments. Ficoll-Histopaque density sedimentation (Sigma Aldrich) was used for separation of debris and purification of cell lines prior to experiments. […] The cytotoxic effect of test compounds on the MCL-cell lines was assessed by measuring cell concentration and cell viability using a Beckman Coulter Vi-Cell Counter. Controls and treated cells were harvested and counted at day 3.

MCL-Mino = test: Mantle Cell Lymphoma Assay: cytotoxicity, Mino; format: cell-based; details: 72 hrs in culture
Excerpt: as §1

MCL-Rec1 = test: Mantle Cell Lymphoma Assay: cytotoxicity, Rec-1; format: cell-based; details: 72 hrs in culture
Excerpt: as §1

MM cell line = test: Multiple Myeloma Assay; format: cell-based; details: 72 hrs in culture
[1] = system: Jeko, Mino and Rec-1 cells; test: cells; format: cell-based; details: 72 h, read-out: decrease in cell viability

## COc1cc(Cl)c(Nc2nc(-c3c(C)nc4ncccn34)cs2)c(Cl)c1 (as salt: HBr) [Cpd 19, N-(2,6-dichloro-4-methoxyphenyl)-4-(2-methylimidazo[1,2-a]pyrimidin-3-yl)thiazol-2-amine]
other
  melting point: 232 to 240 °C

## Cc1nc2ncccn2c1-c1csc(Nc2ccc(Cl)cc2)n1 [Cpd 49, N-(4-chlorophenyl)-4-(2-methylimidazo[1,2-a]pyrimidin-3-yl)-1,3-thiazol-2-amine]
Bmi-1
  IC50: < 500 nM
MCL-Jeko; dose 0.004 μM
  Cell Concentration, MCL-Jeko: 1.83 ± 0.01 ×10^6
MCL-Jeko; dose 0.004 μM, read-out: Cell Viability, MCL-Jeko
  viability at 0.004 µM: 74.33 ± 0.53%
MCL-Jeko; dose 0.037 μM
  Cell Concentration, MCL-Jeko: 1.94 ± 0.06 ×10^6
MCL-Jeko; dose 0.037 μM, read-out: Cell Viability, MCL-Jeko
  viability at 0.037 µM: 74.7 ± 1.08%
MCL-Jeko; dose 0.11 μM
  Cell Concentration, MCL-Jeko: 2.06 ± 0.04 ×10^6
MCL-Jeko; dose 0.11 μM, read-out: Cell Viability, MCL-Jeko
  viability at 0.11 µM: 78.73 ± 0.33%
MCL-Jeko; dose 0.33 μM
  Cell Concentration, MCL-Jeko: 1.82 ± 0.06 ×10^6
MCL-Jeko; dose 0.33 μM, read-out: Cell Viability, MCL-Jeko
  viability at 0.33 µM: 73.2 ± 0.58%
MCL-Jeko; dose 1 μM
  Cell Concentration, MCL-Jeko: 0.66 ± 0.05 ×10^6
MCL-Jeko; dose 1 μM, read-out: Cell Viability, MCL-Jeko
  viability at 1 µM: 39.6 ± 2.28%
MCL-Jeko; dose 3 μM
  Cell Concentration, MCL-Jeko: 0.06 ± 0.01 ×10^6
MCL-Jeko; dose 3 μM, read-out: Cell Viability, MCL-Jeko
  viability at 3 µM: 5.4 ± 0.61%
MCL-Mino; Homo sapiens, MINO, dose 0.004 μM, read-out: Cell Viability, MCL-Mino
  viability at 0.004 µM: 94.7 ± 0.44%
MCL-Mino; Homo sapiens, MINO, dose 0.037 μM, read-out: Cell Viability, MCL-Mino
  viability at 0.037 µM: 91.2 ± 1%
MCL-Mino; Homo sapiens, MINO, dose 0.11 μM, read-out: Cell Viability, MCL-Mino
  viability at 0.11 µM: 75.6 ± 1.49%
MCL-Mino; Homo sapiens, MINO, dose 0.33 μM, read-out: Cell Viability, MCL-Mino
  viability at 0.33 µM: 34.4 ± 2.46%
MCL-Mino; Homo sapiens, MINO, dose 1 μM, read-out: Cell Viability, MCL-Mino
  viability at 1 µM: 15.3 ± 1.13%
MCL-Mino; Homo sapiens, MINO, dose 3 μM, read-out: Cell Viability, MCL-Mino
  viability at 3 µM: 12.7 ± 1.47%
MCL-Mino; dose 0.004 μM
  Cell Concentration, MCL-Mino: 1.87 ± 0.04 ×10^6
MCL-Mino; dose 0.037 μM
  Cell Concentration, MCL-Mino: 1.72 ± 0.09 ×10^6
MCL-Mino; dose 0.11 μM
  Cell Concentration, MCL-Mino: 0.97 ± 0.06 ×10^6
MCL-Mino; dose 0.33 μM
  Cell Concentration, MCL-Mino: 0.15 ± 0.06 ×10^6
MCL-Mino; dose 1 μM
  Cell Concentration, MCL-Mino: 0.07 ± 0.01 ×10^6
MCL-Mino; dose 3 μM
  Cell Concentration, MCL-Mino: 0.06 ± 0.01 ×10^6
MCL-Rec1; Homo sapiens, Rec1, dose 0.004 μM, read-out: Cell Viability, MCL-Rec1
  viability at 0.004 µM: 89.2 ± 0.33%
MCL-Rec1; Homo sapiens, Rec1, dose 0.037 μM, read-out: Cell Viability, MCL-Rec1
  viability at 0.037 µM: 89.07 ± 0.33%
MCL-Rec1; Homo sapiens, Rec1, dose 0.11 μM, read-out: Cell Viability, MCL-Rec1
  viability at 0.11 µM: 90.07 ± 0.1%
MCL-Rec1; Homo sapiens, Rec1, dose 0.33 μM, read-out: Cell Viability, MCL-Rec1
  viability at 0.33 µM: 81.93 ± 0.03%
MCL-Rec1; Homo sapiens, Rec1, dose 1 μM, read-out: Cell Viability, MCL-Rec1
  viability at 1 µM: 51 ± 1.83%
MCL-Rec1; Homo sapiens, Rec1, dose 3 μM, read-out: Cell Viability, MCL-Rec1
  viability at 3 µM: 12 ± 0.95%
MCL-Rec1; dose 0.004 μM
  Cell Concentration, MCL-Rec1: 0.83 ± 0.01 ×10^6
MCL-Rec1; dose 0.037 μM
  Cell Concentration, MCL-Rec1: 0.87 ± 0.01 ×10^6
MCL-Rec1; dose 0.11 μM
  Cell Concentration, MCL-Rec1: 0.84 ± 0.01 ×10^6
MCL-Rec1; dose 0.33 μM
  Cell Concentration, MCL-Rec1: 0.58 ± 0.00 ×10^6
MCL-Rec1; dose 1 μM
  Cell Concentration, MCL-Rec1: 0.21 ± 0.01 ×10^6
MCL-Rec1; dose 3 μM
  Cell Concentration, MCL-Rec1: 0.04 ± 0.00 ×10^6
MM cell line; dose 0.004 μM
  Cell Concentration, MM cell line: 1.22 ± 0.05 ×10^6
  viability at 0.004 µM: 89.63 ± 0.35%
MM cell line; dose 0.037 μM
  Cell Concentration, MM cell line: 1.09 ± 0.05 ×10^6
  viability at 0.037 µM: 89.53 ± 0.46%
MM cell line; dose 0.11 μM
  Cell Concentration, MM cell line: 0.85 ± 0.05 ×10^6
  viability at 0.11 µM: 84.7 ± 0.88%
MM cell line; dose 0.33 μM
  Cell Concentration, MM cell line: 0.38 ± 0.01 ×10^6
  viability at 0.33 µM: 69.6 ± 0.85%
MM cell line; dose 1 μM
  Cell Concentration, MM cell line: 0.21 ± 0.01 ×10^6
  viability at 1 µM: 55.5 ± 2.4%
MM cell line; dose 3 μM
  Cell Concentration, MM cell line: 0.22 ± 0.01 ×10^6
  viability at 3 µM: 55.5 ± 1.79%
[1]
  cytotoxicity at 0.08 µM: 70 to 90%
